Test results published in patent US20200131142A1, “FARNESOID X RECEPTOR AGONISTS AND USES THEREOF” (Metacrine, Inc., priority 2017, published 2020).
pEC50: −log10 of the molar value.

target: T1, hFXR (Homo sapiens, UniProt Q96RI1); test: In Vitro FXR Assay (TK): hFXR/hRXR TK-ECRE-luc reporter in transfected CV-1 cells; type: cell-based; details: 18 hrs incubation, luminescence, compounds with maximum efficacy <25% of the Fexarmine control classified as '+'
T1 construct: expressed in transfected cells; host or cells: CV-1 cells
T1 sequence (Q96RI1 1-486): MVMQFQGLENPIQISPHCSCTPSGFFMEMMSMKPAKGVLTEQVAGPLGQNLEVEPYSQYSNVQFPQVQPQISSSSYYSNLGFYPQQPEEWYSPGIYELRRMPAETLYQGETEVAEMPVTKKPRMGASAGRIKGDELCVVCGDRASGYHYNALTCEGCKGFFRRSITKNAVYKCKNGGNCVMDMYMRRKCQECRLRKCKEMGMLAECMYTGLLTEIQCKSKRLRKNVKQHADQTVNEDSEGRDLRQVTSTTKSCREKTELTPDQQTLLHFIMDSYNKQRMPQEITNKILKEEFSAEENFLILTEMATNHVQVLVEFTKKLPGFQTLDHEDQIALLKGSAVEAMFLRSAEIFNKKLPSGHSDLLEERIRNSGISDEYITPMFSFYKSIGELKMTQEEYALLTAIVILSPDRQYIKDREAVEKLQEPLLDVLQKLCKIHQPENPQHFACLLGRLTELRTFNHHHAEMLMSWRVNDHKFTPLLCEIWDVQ
T1 sequence (P19793 1-462 partner): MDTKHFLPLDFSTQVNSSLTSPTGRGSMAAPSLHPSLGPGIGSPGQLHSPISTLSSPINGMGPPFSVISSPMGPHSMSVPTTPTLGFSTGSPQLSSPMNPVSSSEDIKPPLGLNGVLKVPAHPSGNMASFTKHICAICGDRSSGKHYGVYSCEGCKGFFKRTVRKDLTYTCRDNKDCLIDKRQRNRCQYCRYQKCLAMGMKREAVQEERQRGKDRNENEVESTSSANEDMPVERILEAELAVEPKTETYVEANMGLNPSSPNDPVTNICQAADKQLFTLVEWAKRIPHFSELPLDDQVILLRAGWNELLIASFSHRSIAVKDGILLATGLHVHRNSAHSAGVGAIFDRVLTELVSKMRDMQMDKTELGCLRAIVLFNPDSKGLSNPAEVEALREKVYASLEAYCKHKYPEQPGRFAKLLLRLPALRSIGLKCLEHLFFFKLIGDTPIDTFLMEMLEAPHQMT
Method in brief: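 Luminescence from a TK-ECRE-luc reporter was read after 18 h of compound exposure in CV-1 cells. These cells were grown in charcoal-stripped FBS medium and transiently transfected with hFXR, hRXR and YFP expression plasmids.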

pEC50	SMILES
≥ 6.60	COc1ncc(-c2cccc(N(C[C@H]3CC[C@H](c4ccc5c(c4)OCO5)CC3)C(=O)[C@H]3CC[C@H](O)CC3)c2)s1 [Compound 9.14, trans-N-((trans-4-(Benzo[d][1,3]dioxol-5-yl)cyclohexyl)methyl)-4-hydroxy-N-(3-(2-methoxythiazol-5-yl)phenyl)cyclohexanecarboxamide]
6.00 to 6.60	Cc1cc([C@H]2CC[C@H](CN(c3cccc(-c4cnc(C5CC5)s4)c3)C(=O)[C@H]3CC[C@H](O)CC3)CC2)ccc1N(C)S(C)(=O)=O [Compound 9.15, trans-N-(3-(2-Cyclopropylthiazol-5-yl)phenyl)-4-hydroxy-N-((trans-4-(3-methyl-4-(N-methylmethylsulfonamido)phenyl)cyclohexyl)methyl)cyclohexanecarboxamide]
≥ 6.60	Cn1ncc2cc([C@H]3CC[C@H](CN(c4cccc(-c5cnc(C6CC6)s5)c4)C(=O)[C@H]4CC[C@H](O)CC4)CC3)ccc21 [Compound 9.16, trans-N-(3-(2-Cyclopropylthiaol-5-yl)phenyl)-4-hydroxy-N-((trans-4-(1-methyl-1H-indazol-5-yl)cyclohexyl)methyl)cyclohexanecarboxamide]
6.00 to 6.60	Cn1ccc2cc([C@H]3CC[C@H](CN(c4cccc(-c5cnc(C6CC6)s5)c4)C(=O)[C@H]4CC[C@H](O)CC4)CC3)ncc21 [Compound 9.17, trans-N-(3-(2-Cyclopropylthiazol-5-yl)phenyl)-4-hydroyx-N-((trans-4-(1-methyl-1H-pyrrolo[2,3-c]pyridin-5-yl)cyclohexyl)methyl)cyclohexanecarboxamide]
≥ 6.60	CCn1cc([C@H]2CC[C@H](CN(c3cccc(-c4cnc(C5CC5)s4)c3)C(=O)[C@H]3CC[C@H](O)CC3)CC2)cn1 [Compound 9.18, trans-N-(3-(2-Cyclopropylthiazol-5-yl)phenyl)-N-((trans-4-(1-ethyl-1H-pyrazol-4-yl)cyclohexyl)methyl)-4-hydroxycyclohexanecarboxamide]
≥ 6.60	COc1ccc([C@H]2CC[C@H](CN(c3cccc(-c4cnc(C5CC5)s4)c3)C(=O)[C@H]3CC[C@H](O)CC3)CC2)nc1C [Compound 9.19, trans-N-(3-(2-Cyclopropylthiazol-5-yl)phenyl)-4-hydroxy-N-((trans-4-(5-methoxy-6-methylpyridin-2-yl)cyclohexyl)methyl)cyclohexanecarboxamide]
≥ 6.60	COc1ccc([C@H]2CC[C@H](CN(c3cc(-c4cnc(C5CC5)s4)ccn3)C(=O)[C@H]3CC[C@H](O)CC3)CC2)nc1C [Compound 9.20, trans-N-(4-(2-Cyclopropylthiazol-5-yl)pyridin-2-yl)-4-hydroxy-N-((trans-4-(5-methoxy-6-methylpyridin-2-yl)cyclohexyl)methyl)cyclohexanecarboxamide]
≥ 6.60	COc1ccc([C@H]2CC[C@H](CN(c3cccc(-c4cnc(C5CC5)s4)c3)C(=O)[C@H]3CC[C@H](O)CC3)CC2)nc1C#N [Compound 9.21, trans-N-((trans-4-(6-Cyano-5-methoxypyridin-2-yl)cyclohexyl)methyl)-N-(3-(2-cyclopropylthiazol-5-yl)phenyl)-4-hydroxycyclohexanecarboxamide]
≥ 6.60	COc1ccc([C@H]2CC[C@H](CN(c3cc(-c4cnc(C5CC5)s4)ccn3)C(=O)[C@H]3CC[C@H](O)CC3)CC2)cc1C#N [Compound 9.22, trans-N-((trans-4-(3-Cyano-4-methoxyphenyl)cyclohexyl)methyl)-N-(4-(2-cyclopropylthiazol-5-yl)pyridin-2-yl)-4-hydroxycyclohexanecarboxamide]
≥ 6.60	COc1ccc([C@H]2CC[C@H](CN(c3cc(-c4cnc(C5CC5)s4)ccn3)C(=O)[C@H]3CC[C@H](O)CC3)CC2)nc1C#N [Compound 9.23, trans-N-((trans-4-(6-Cyano-5-methoxypyridin-2-yl)cyclohexyl)methyl)-N-(4-(2-cyclopropylthiazol-5-yl)pyridin-2-yl)-4-hydroxycyclohexanecarboxamide]
6.00 to 6.60	COc1cnc([C@H]2CC[C@H](CN(c3cccc(-c4cnc(C5CC5)s4)c3)C(=O)[C@H]3CC[C@H](O)CC3)CC2)cc1C [Compound 9.24, trans-N-(3-(2-Cyclopropylthiazol-5-yl)phenyl)-4-hydroxy-N-((trans-4-(5-methoxy-4-methylpyridin-2-yl)cyclohexyl)methyl)cyclohexanecarboxamide]
≥ 6.60	O=C([C@H]1CC[C@H](O)CC1)N(C[C@H]1CC[C@H](c2ccc3c(c2)OCO3)CC1)c1cccc(-c2cnc(C3CC3)s2)c1 [Compound 9.25, trans-N-((trans-4-(Benzo[d][1,3]dioxol-5-yl)cyclohexyl)methyl)-N-(3-(2-cyclopropylthiazol-5-yl)phenyl)-4-hydroxycyclohexanecarboxamide]
≥ 6.60	COc1ccc([C@H]2CC[C@H](CN(c3cccc(-c4cnc(C5CC5)s4)c3)C(=O)[C@H]3CC[C@H](O)CC3)CC2)cc1S(C)(=O)=O [Compound 9.26, trans-N-(3-(2-Cyclopropylthiazol-5-yl)phenyl)-4-hydroxy-N-((trans-4-(4-methoxy-3-(methylsulfonyl)phenyl)cyclohexyl)methyl) cyclohexanecarboxamide]
≥ 6.60	COc1ccc([C@H]2CC[C@H](CN(c3cccc(-c4cnc(C(C)C)s4)c3)C(=O)[C@H]3CC[C@H](O)CC3)CC2)nc1C [Compound 9.27, trans-4-Hydroxy-N-(3-(2-isopropylthiazol-5-yl)phenyl)-N-((trans-4-(5-methoxy-6-methylpyridin-2-yl)cyclohexyl)methyl)cyclohexanecarboxamide]
≥ 6.60	COc1ccc([C@H]2CC[C@H](CN(c3cc(-c4cnc(C(C)C)s4)ccn3)C(=O)[C@H]3CC[C@H](O)CC3)CC2)cc1C [Compound 9.28, trans-4-Hydroxy-N-(4-(2-isoporpylthiazol-5-yl)pyridin-2-yl)-N-((trans-4-(4-methoxy-3-methylphenyl)cyclohexyl)methyl) cyclohexanecarboxamide]
≥ 6.60	COc1ccc([C@H]2CC[C@H](CN(c3cc(-c4cnc(C(C)C)s4)ccn3)C(=O)[C@H]3CC[C@H](O)CC3)CC2)nc1C [Compound 9.29, trans-4-Hydroxy-N-(4-(2-isopropylthiazol-5-yl)pyridin-2-yl)-N-((trans-4-(5-methoxy-6-methylpyridin-2-yl)cyclohexyl)methyl)cyclohexanecarboxamide]
≥ 6.60	COc1ncc(-c2cccc(N(C[C@H]3CC[C@H](c4ccc(OC)c(C)c4)CC3)C(=O)C3CCOCC3)c2)s1 [Compound 9.30, N-((trans-4-(4-Methoxy-3-methylphenyl)cyclohexyl)methyl)-N-(3-(2-methoxythiazol-5-yl)phenyl)tetrahydro-2H-pyran-4-carboxamide]
≥ 6.60	COc1ncc(-c2cccc(N(C[C@H]3CC[C@H](c4ccc(OC)c(C)c4)CC3)C(=O)[C@H]3CC[C@H](C)CC3)c2)s1 [Compound 9.31, trans-N-((trans-4-(4-Methoxy-3-methylphenyl)cyclohexyl)methyl)-N-(3-(2-methoxythiazol-5-yl)phenyl)-4-methylcyclohexanecarboxamide]
≥ 6.60	COc1ncc(-c2cccc(N(C[C@H]3CC[C@H](c4ccc(OC)c(C)c4)CC3)C(=O)C3CCC(F)(F)CC3)c2)s1 [Compound 9.32, 4,4-Difluoro-N-((trans-4-(4-methoxy-3-methylphenyl)cyclohexyl)methyl)-N-(3-(2-methoxythiazol-5-yl)phenyl)cyclohexanecarboxamide]
≥ 6.60	COc1ncc(-c2cccc(N(C[C@H]3CC[C@H](c4ccc(OC)c(C)c4)CC3)C(=O)[C@H]3CC[C@H](OC)CC3)c2)s1 [Compound 9.33, trans-4-Methoxy-N-((trans-4-(4-methoxy-3-methylphenyl)cyclohexyl)methyl)-N-(3-(2-methoxythiazol-5-yl)phenyl)cyclohexanecarboxamide]
≥ 6.60	COc1ncc(-c2cccc(N(C[C@H]3CC[C@H](c4ccc(OC)c(C)c4)CC3)C(=O)[C@H]3CC[C@H](OC(C)C)CC3)c2)s1 [Compound 9.34, trans-4-Isopropoxy-N-((trans-4-(4-methoxy-3-methylphenyl)cyclohexyl)methyl)-N-(3-(2-methoxythiazol-5-yl)phenyl)cyclohexanecarboxamide]
≥ 6.60	COc1ccc(C23CCC(CN(c4cccc(-c5cnc(C6CC6)s5)c4)C(=O)[C@H]4CC[C@H](O)CC4)(CC2)CC3)cc1C [Compound 10, trans-N-(3-(2-Cyclopropylthiazol-5-yl)phenyl)-4-hydroxy-N-((4-(4-methoxy-3-methylphenyl)bicyclo[2.2.2]octan-1-yl)methyl)cyclohexanecarboxamide]
